Results on 20 compounds are retold here after patent US8729078B2, “Inhibitors of bruton's tyrosine kinase” (Hoffmann-La Roche Inc., priority 2011, dated 2014).

pIC50: −log10 of the molar value.

Assay [1] concerns B cells in human whole blood (CD69 expression). As to the kind of experiment: Inhibition of B cell activation in whole blood measured by CD69 expression. The assay is classed as cell-based. The settings on record: anti-IgM stimulation, CD69-positive CD20-positive cells. How it is done: Inhibition of B Cell Activation in Whole Blood Measured by CD69 Expression
A procedure to test the ability of Btk inhibitors to suppress B cell receptor-mediated activation of B cells in human blood is as follows:
Human whole blood (HWB) is obtained from healthy volunteers, with the following restrictions: 24 hr drug-free, non-smokers. Blood is collected by venipuncture into Vacutainer tubes anticoagulated with sodium heparin. Test compounds are diluted to ten times the desired starting drug concentration in PBS (20×), followed by three-fold serial dilutions in 10% DMSO in PBS to produce a nine point dose-response curve. 5.5 μl of each compound dilution is added in duplicate to a 2 ml 96-well V bottom plate (Analytical Sales and Services, #59623-23); 5.5 μl of 10% DMSO in PBS is added to control and no-stimulus wells. HWB (100 μl) is added to each well, and after mixing the plates are incubated at 37 C, 5% CO2, 100% humidity for 30 minutes. Goat F(ab′)2 anti-human IgM (Southern Biotech, #2022-14) (10 μl of a 500 μg/ml solution, 50 μg/ml final concentration) is added to each well (except the no-stimulus wells) with mixing and the plates are incubated for an additional 20 hours.
At the end of the 20 hour incubation, samples are incubated with florescent-probe-labeled anti-bodies (15 μl PE Mouse anti-Human CD20, BD Pharmingen, #555623, and/or 20 ul APC Mouse anti-Human CD69, BD Pharmingen #555533) for 30 minutes, at 37 C, 5% CO2, 100% humidity. Included are induced control, unstained and single stains for compensation adjustments and initial voltage settings. Samples are then lysed with 1 ml of 1× Pharmingen Lyse Buffer (BD Pharmingen #555899), and plates are centrifuged at 1800 rpm for 5 minutes. Supernatants are removed via suction and the remaining pellets are lysed again with another 1 ml of 1× Pharmingen Lyse Buffer, and plates are spun down as before. Supernatants are aspirated and remaining pellets are washed in FACs buffer (PBS+1% FBS). After a final spin, the supernantants are removed and pellets are resuspended in 180 μl of FACs buffer. Samples are transferred to a 96 well plate suitable to be run on the HTS 96 well system on the BD LSR II flow cytometer.
Using appropriate excitation and emission wavelengths for the fluorophores used, data are acquired and percent positive cell values are obtained using Cell Quest Software. Results are initially analyzed by FACS analysis software (Flow Jo). […] The IC50 values are calculated using XLfit software version 3, equation 201.

The target in another assay is Btk (Homo sapiens (Human), UniProt Q06187). In words: Bruton's Tyrosine Kinase (Btk) inhibition assay (FRET BTK). The class given is biochemical.
Btk, sequence (Q06187 whole entry): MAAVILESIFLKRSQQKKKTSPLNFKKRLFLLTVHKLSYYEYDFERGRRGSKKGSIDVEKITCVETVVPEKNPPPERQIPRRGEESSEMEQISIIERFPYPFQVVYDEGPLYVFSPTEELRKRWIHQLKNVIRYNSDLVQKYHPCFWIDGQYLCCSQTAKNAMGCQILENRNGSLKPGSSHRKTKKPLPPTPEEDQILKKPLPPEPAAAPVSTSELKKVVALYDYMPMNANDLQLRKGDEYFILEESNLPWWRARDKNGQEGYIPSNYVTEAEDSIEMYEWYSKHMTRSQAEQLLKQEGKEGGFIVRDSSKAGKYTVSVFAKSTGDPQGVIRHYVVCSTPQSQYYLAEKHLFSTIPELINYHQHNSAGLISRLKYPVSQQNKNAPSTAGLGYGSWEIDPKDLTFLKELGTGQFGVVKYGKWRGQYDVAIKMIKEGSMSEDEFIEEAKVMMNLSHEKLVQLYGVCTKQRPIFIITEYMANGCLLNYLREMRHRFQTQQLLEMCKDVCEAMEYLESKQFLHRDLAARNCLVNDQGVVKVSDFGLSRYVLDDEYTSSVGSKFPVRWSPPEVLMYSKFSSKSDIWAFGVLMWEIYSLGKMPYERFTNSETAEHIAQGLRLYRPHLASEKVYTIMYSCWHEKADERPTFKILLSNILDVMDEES

Turning to `Cn1cc(-c2cccc(-n3ncc4cc(C(C)(C)C)ccc4c3=O)c2CO)cc1C(N)=O` [Compound I-4, 4-[3-(6-tert-Butyl-1-oxo-1H-phthalazin-2-yl)-2-hydroxymethyl-phenyl]-1-methyl-1H-pyrrole-2-carboxylic acid amide], the pIC50 is 5.44 in assay [1] and 7.94 against Btk.

For the compound `CC(C)(C)c1cc(F)c2c(=O)n(-c3cccc(-c4ccc(C(N)=O)o4)c3CO)ncc2c1` [Compound I-10, 5-[3-(6-tert-Butyl-8-fluoro-1-oxo-1H-phthalazin-2-yl)-2-hydroxymethyl-phenyl]-furan-2-carboxylic acid amide], the negative logarithm of the IC50 (pIC50) in assay [1] was less than 5.30; at Btk, 6.08.

Regarding `Cn1cc(-c2cccc(-n3ncc4cc(C(C)(C)C)cc(F)c4c3=O)c2CO)cc1C(N)=O` [Compound I-9, 4-[3-(6-tert-Butyl-8-fluoro-1-oxo-1H-phthalazin-2-yl)-2-hydroxymethyl-phenyl]-1-methyl-1H-pyrrole-2-carboxylic acid amide], the figures for the pIC50 (in assay [1]; against Btk) were 5.90 and 8.60, respectively.

On to `CC(C)(C)c1cc(F)c2c(=O)n(-c3cccc(-n4cc(C(N)=O)c(Nc5ccc(C(=O)N6CCOCC6)cc5)n4)c3CO)ncc2c1` [Compound I-20, 1-[3-(6-tert-Butyl-8-fluoro-1-oxo-1H-phthalazin-2-yl)-2-hydroxymethyl-phenyl]-3-[4-(morpholine-4-carbonyl)-phenylamino]-1H-pyrazole-4-carboxylic acid amide], for which the pIC50 in assay [1] is 8.00.

On to `Cn1cc(-c2cccc(-n3ncc4cc(C(C)(C)C)cc(F)c4c3=O)c2CO)nc1C(N)=O` [Compound I-8, 4-[3-(6-tert-Butyl-8-fluoro-1-oxo-1H-phthalazin-2-yl)-2-hydroxymethyl-phenyl]-1-methyl-1H-imidazole-2-carboxylic acid amide], for which the pIC50 in assay [1] was 5.72; against Btk, 7.74.

Compound `CC(C)(C)c1ccc2c(=O)n(-c3cccc(-n4cc(C(N)=O)c5ccccc54)c3CO)ncc2c1` [Compound I-18, 1-[3-(6-tert-Butyl-1-oxo-1H-phthalazin-2-yl)-2-hydroxymethyl-phenyl]-1H-indole-3-carboxylic acid amide] had a pIC50 in assay [1] of 4.97.

Turning to `Cn1cc(-c2cccc(-n3ncc4cc(C(C)(C)C)cc(CO)c4c3=O)c2CO)cc1C(N)=O` [Compound I-12, 4-[3-(6-tert-Butyl-8-hydroxymethyl-1-oxo-1H-phthalazin-2-yl)-2-hydroxymethyl-phenyl]-1-methyl-1H-pyrrole-2-carboxylic acid amide], the pIC50 is less than 6.30 in assay [1] and 6.16 at Btk.

`Cn1c(C(N)=O)ccc1-c1cccc(-n2ncc3cc(C(C)(C)C)ccc3c2=O)c1CO` [Compound I-5, 5-[3-(6-tert-Butyl-1-oxo-1H-phthalazin-2-yl)-2-hydroxymethyl-phenyl]-1-methyl-1H-pyrrole-2-carboxylic acid amide] gave a negative-log IC50 (pIC50) in assay [1] of 5.36.

As for `CC(C)(C)c1cc(F)c2c(=O)n(-c3cccc(-n4cc(C(N)=O)c5ccccc54)c3CO)ncc2c1` [Compound I-17, 1-[3-(6-tert-Butyl-8-fluoro-1-oxo-1H-phthalazin-2-yl)-2-hydroxymethyl-phenyl]-1H-indole-3-carboxylic acid amide], the pIC50 in assay [1] was 5.58.

For `CC(C)(C)c1cc(F)c2c(=O)n(-c3cccc(-n4cc(C(N)=O)c(Nc5ccc(C(=O)N6CCOCC6)cc5)n4)c3)ncc2c1` [Compound I-21, 1-[3-(6-tert-Butyl-8-fluoro-1-oxo-1H-phthalazin-2-yl)-phenyl]-3-[4-(morpholine-4-carbonyl)-phenylamino]-1H-pyrazole-4-carboxylic acid amide], the pIC50 in assay [1] was 6.59.

In the case of `CC(C)(C)c1cc(F)c2c(=O)n(-c3cccc(-c4coc(C(N)=O)c4)c3CO)ncc2c1` [Compound I-11, 4-[3-(6-tert-Butyl-8-fluoro-1-oxo-1H-phthalazin-2-yl)-2-hydroxymethyl-phenyl]-furan-2-carboxylic acid amide], the values for the pIC50 (in assay [1]; against Btk) were less than 6.30 and 7.29, respectively.

In assay [1], `CC(C)(C)c1ccc2c(=O)n(-c3cccc(-n4cc(C(N)=O)c(Nc5ccc(C(=O)N6CCOCC6)cc5)n4)c3CO)ncc2c1` [Compound I-19, 1-[3-(6-tert-Butyl-1-oxo-1H-phthalazin-2-yl)-2-hydroxymethyl-phenyl]-3-[4-(morpholine-4-carbonyl)-phenylamino]-1H-pyrazole-4-carboxylic acid amide] showed a pIC50 of 7.32.

In the case of `CC(C)(C)c1ccc2c(=O)n(-c3cccc(-c4c[nH]c(C(N)=O)c4)c3CO)ncc2c1` [Compound I-3, 4-[3-(6-tert-Butyl-1-oxo-1H-phthalazin-2-yl)-2-hydroxymethyl-phenyl]-1H-pyrrole-2-carboxylic acid amide], the pIC50 was less than 5.30 in assay [1] and 7.57 against Btk.

In assay [1], `CN(C)Cc1ccc2c(C(N)=O)cn(-c3cccc(-n4ncc5cc(C(C)(C)C)cc(F)c5c4=O)c3CO)c2n1` [Compound I-52, 1-[3-(6-tert-Butyl-8-fluoro-1-oxo-1H-phthalazin-2-yl)-2-hydroxymethyl-phenyl]-6-dimethylaminomethyl-1H-pyrrolo[2,3-b]pyridine-3-carboxylic acid amide] showed a pIC50 of 5.97.

Turning to `CC(C)(C)c1cc(F)c2c(=O)n(-c3cccc(-n4cc(C(N)=O)c5ccc(C(O)CO)nc54)c3CO)ncc2c1` (stereo not drawn) [Compound I-49, 1-[3-(6-tert-Butyl-8-fluoro-1-oxo-1H-phthalazin-2-yl)-2-hydroxymethyl-phenyl]-6-(1,2-dihydroxy-ethyl)-1H-pyrrolo[2,3-b]pyridine-3-carboxylic acid amide], the pIC50 on Btk is 7.86.

Consider `Cc1cc(Nc2nn(-c3cccc(-n4ncc5cc(C(C)(C)C)cc(F)c5c4=O)c3CO)cc2C(N)=O)nn1C` [Compound I-31, 1-[3-(6-tert-Butyl-8-fluoro-1-oxo-1H-phthalazin-2-yl)-2-hydroxymethyl-phenyl]-3-(1,5-dimethyl-1H-pyrazol-3-ylamino)-1H-pyrazole-4-carboxylic acid amide], for which the pIC50 against Btk is 9.54.

On Btk, `Cn1cc(-c2cccc(-n3ccc4cc(C5CC5)cc(F)c4c3=O)c2CO)cc1C(N)=O` [Compound I-13, 4-[3-(6-Cyclopropyl-8-fluoro-1-oxo-1H-isoquinolin-2-yl)-2-hydroxymethyl-phenyl]-1-methyl-1H-pyrrole-2-carboxylic acid amide] had a pIC50 of 7.41.

`CC(C)(C)c1cc(F)c2c(=O)n(-c3cccc(-n4cc(C(N)=O)c5ccc(-c6ccccc6Cl)nc54)c3CO)ncc2c1` [Compound I-47, 1-[3-(6-tert-Butyl-8-fluoro-1-oxo-1H-phthalazin-2-yl)-2-hydroxymethyl-phenyl]-6-(2-chloro-phenyl)-1H-pyrrolo[2,3-b]pyridine-3-carboxylic acid amide] showed a pIC50 on Btk of 7.55.

At Btk, `Cc1cc(Nc2nn(-c3cccc(-n4ncc5cc(C(C)(C)C)ccc5c4=O)c3CO)cc2C(N)=O)nn1C` [Compound I-34, 1-[3-(6-tert-Butyl-1-oxo-1H-phthalazin-2-yl)-2-hydroxymethyl-phenyl]-3-(1,5-dimethyl-1H-pyrazol-3-ylamino)-1H-pyrazole-4-carboxylic acid amide] gave a negative logarithm of the IC50 (pIC50) of 9.29.

In the case of `CC(C)(C)c1ccc2c(=O)n(-c3cccc(-n4cc(C(N)=O)c(Nc5cnccn5)n4)c3CO)ncc2c1` [Compound I-36, 1-[3-(6-tert-Butyl-1-oxo-1H-phthalazin-2-yl)-2-hydroxymethyl-phenyl]-3-(pyrazin-2-ylamino)-1H-pyrazole-4-carboxylic acid amide], at Btk, the pIC50 was 9.08.

Broadly, the pIC50 is −log10 of the IC50, conventionally taken in molar units. Low readings indicate a large IC50, high ones a small IC50.
